Literature values in patent US20250145561A1, “4-SUBSTITUTED-PHENYL ACETAMIDES AND ARYLUREAS AS AGONISTS FOR THE ORPHAN RECEPTOR GPR88” (RESEARCH TRIANGLE INSTITUTE, priority 2022, published 2025).

Tests used:
[1] = rats, intraperitoneally; cited from earlier work
[2] = rats, intraperitoneally, dose-dependent; cited from earlier work

SMILES: COCc1ccc(-c2ccc(N(C[C@@H](N)[C@@H](C)OC)C(=O)[C@@H]3C[C@H]3c3ccccn3)cc2)cc1 [RTI-13951-33]
- sucrose self-administration [1]: without effects
- alcohol intake [2]: significantly reduced
- alcohol self-administration [2]: significantly reduced
